Laboratory results: patent publication US10125098B2, “Therapeutic compounds and methods of use thereof” (GENENTECH, INC., priority 2014, dated 2018)
Where two headings read alike, the source gives them in different places.

What was measured:
human NaV1.7 = target: T1, human NaV1.7 (Homo sapiens, UniProt Q15858); test: Patch voltage clamp electrophysiology assay (EP), NaV1.7; assay type: cell-based; settings: HEK-293 cells stably expressing NaV1.7 with β1 subunit; whole-cell patch clamp, membrane potential −60 mV (inactivated state)
T1 construct: permanently transfected with an expression vector containing the full-length cDNA coding for the desired human sodium channel α-subunit; expressed in transfected cells; host or cells: HEK-293
T1 sequence (Q15858 1-1977 isoform Q15858-3): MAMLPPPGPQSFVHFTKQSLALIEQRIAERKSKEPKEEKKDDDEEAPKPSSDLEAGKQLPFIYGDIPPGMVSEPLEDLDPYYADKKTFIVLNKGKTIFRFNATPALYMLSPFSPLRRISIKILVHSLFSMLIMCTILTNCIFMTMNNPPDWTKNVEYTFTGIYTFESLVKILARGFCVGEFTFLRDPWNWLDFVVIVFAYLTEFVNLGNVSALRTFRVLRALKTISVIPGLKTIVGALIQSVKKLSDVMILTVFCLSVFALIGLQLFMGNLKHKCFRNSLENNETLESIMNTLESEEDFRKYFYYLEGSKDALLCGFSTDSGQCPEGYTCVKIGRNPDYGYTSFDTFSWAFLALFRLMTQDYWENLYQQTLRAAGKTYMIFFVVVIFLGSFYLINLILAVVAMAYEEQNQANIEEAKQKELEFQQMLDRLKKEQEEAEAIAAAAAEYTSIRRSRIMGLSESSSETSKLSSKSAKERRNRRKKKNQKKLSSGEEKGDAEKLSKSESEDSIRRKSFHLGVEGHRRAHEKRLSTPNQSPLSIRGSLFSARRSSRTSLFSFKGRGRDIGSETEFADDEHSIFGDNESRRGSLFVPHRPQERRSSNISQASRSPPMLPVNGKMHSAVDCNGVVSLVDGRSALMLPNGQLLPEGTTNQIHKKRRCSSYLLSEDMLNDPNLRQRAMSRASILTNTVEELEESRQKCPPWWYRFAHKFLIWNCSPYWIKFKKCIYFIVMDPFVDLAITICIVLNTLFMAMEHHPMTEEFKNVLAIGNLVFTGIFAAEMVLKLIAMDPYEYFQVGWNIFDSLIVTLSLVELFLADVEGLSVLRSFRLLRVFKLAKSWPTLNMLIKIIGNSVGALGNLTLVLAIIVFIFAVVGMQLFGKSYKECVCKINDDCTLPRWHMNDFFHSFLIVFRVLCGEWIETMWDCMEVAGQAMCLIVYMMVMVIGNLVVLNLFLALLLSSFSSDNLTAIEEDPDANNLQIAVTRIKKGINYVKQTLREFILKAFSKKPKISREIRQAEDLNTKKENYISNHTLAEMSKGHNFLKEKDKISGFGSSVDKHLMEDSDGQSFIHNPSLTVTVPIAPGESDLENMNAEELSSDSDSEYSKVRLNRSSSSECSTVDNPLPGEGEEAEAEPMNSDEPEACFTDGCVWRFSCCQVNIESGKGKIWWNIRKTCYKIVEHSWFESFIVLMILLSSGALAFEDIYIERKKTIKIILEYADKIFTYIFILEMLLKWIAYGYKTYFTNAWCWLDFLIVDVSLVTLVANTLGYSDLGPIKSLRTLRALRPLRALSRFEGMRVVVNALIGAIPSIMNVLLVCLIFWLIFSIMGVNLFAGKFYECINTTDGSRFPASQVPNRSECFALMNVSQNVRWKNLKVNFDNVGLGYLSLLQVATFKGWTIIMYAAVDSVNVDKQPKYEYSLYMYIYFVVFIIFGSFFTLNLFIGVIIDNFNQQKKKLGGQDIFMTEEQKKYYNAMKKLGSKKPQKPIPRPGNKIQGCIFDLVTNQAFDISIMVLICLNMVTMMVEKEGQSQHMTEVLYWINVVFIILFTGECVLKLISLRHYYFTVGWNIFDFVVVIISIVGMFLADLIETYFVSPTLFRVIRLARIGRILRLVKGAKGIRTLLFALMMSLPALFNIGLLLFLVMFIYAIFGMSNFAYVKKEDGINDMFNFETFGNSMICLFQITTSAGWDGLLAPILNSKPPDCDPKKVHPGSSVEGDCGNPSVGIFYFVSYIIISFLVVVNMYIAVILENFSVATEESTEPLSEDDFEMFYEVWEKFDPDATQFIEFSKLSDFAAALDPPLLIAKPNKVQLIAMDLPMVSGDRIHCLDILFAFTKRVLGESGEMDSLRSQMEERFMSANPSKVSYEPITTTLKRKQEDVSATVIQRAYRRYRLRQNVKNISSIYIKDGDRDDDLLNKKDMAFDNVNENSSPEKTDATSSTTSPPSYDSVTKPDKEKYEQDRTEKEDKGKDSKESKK
T1 sequence (Q07699 19-218 partner): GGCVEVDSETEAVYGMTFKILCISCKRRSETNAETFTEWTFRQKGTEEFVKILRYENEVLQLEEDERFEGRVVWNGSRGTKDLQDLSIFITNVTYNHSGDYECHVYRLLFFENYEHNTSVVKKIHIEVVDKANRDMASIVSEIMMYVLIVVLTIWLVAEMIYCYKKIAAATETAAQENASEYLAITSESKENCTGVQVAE
Experimental: (§1) The following patch voltage clamp electrophysiology studies were performed on representative compounds of the invention using human embryonic kidney cells (HEK), permanently transfected with an expression vector containing the full-length cDNA coding for the desired human sodium channel α-subunit, grown in culture media containing 10% FBS, 1% PSG, and 0.5 mg/mL G418 at 37° C. with 5% CO2. […] NaV1.7 and NaV1.5 cDNAs (NM_002977 and AC137587; SCN5A, respectively) were stably expressed in HEK-293 cells. The β1 subunit was coexpressed in both the NaV1.7 and NaV1.5 cell lines.
(§2) Sodium currents were measured using the patch clamp technique in the whole-cell configuration using either a PatchXpress automated voltage clamp or manually using an Axopatch 200B (Axon Instruments) or Model 2400 (A-M systems) amplifier. The manual voltage clamp protocol was as follows: Borosilicate glass micropipettes were fire-polished to a tip diameter yielding a resistance of 2-4 Mohms in the working solutions. The pipette was filled with a solution comprised of: 5 mM NaCl, 10 mM CsCl, 120 mM CsF, 0.1 mM CaCl2, 2 mM MgCl2, 10 mM HEPES, 10 mM EGTA; and adjusted to pH 7.2 with CsOH. The external solution had the following composition: 140 mM NaCl, 5 mM KCl, 2 mM CaCl2, 1 mM MgCl2, 10 mM HEPES; and adjusted to pH 7.4 with NaOH. In some studies, the external sodium was reduced by equimolar replacement with choline. Osmolarity in the CsF internal and NaCl external solutions was adjusted to 300 mOsm/kg and 310 mOsm/kg with glucose, respectively. All recordings were performed at ambient temperature in a bath chamber with a volume of 150 μL. Control sodium currents were measured in 0.5% DMSO. Controls and representative compounds of the invention were applied to the recording chamber through a 4-pinch or 8-pinch valve bath perfusion system manufactured by ALA Scientific Instruments.
(§3) Series resistance compensation was applied (60-80%). […] All statistics in this study are given as mean±SD.
(§4) The membrane potential was maintained at a voltage where inactivation of the channel is complete (which was −60 mV for both NaV1.7 and NaV1.5). The voltage is then stepped back to a very negative (Vhold=[…]) voltage for 20 ms and then a test pulse is applied to quantify the compound block. […] The percent decrease in sodium current following wash-on of compound was taken as the percent block of sodium channels.

hNav1.7 = target: T2, hNav1.7 (Homo sapiens, UniProt Q15858); test: Tritiated compound binding (LBA) to membranes from cells expressing hNav1.7 and the β1 subunit, competitive binding; settings: competitive binding vs 100 pM [3H]compound, 18 h, room temperature, membranes with hNav1.7 and β1 subunit
T2 construct: expressed in transfected cells
T2 sequence (Q15858 1-1977 isoform Q15858-3): as the sequence (Q15858 1-1977 isoform Q15858-3) above
T2 sequence (Q07699 19-218 partner): as the sequence (Q07699 19-218 partner) above
Summary of the method: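 Competitive displacement of 100 pM [3H]compound (tritiated methyl analogue of formula (I)) from hNav1.7/β1 membranes, 18 h at room temperature in NaCl/Tris pH 7.4 buffer containing 0.01% BSA. 1 μM unlabeled compound set non-specific binding. Bound label quantified by scintillation after filtration; 4-parameter fit gave IC50.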

NaV1.5 = target: T3, NaV1.5 (Homo sapiens, UniProt Q14524); test: Patch voltage clamp electrophysiology assay (EP), NaV1.5; assay type: cell-based; settings: HEK-293 cells stably expressing NaV1.5 with β1 subunit, whole-cell patch clamp, membrane potential −60 mV (inactivated state)
T3 construct: permanently transfected with an expression vector containing the full-length cDNA coding for the desired human sodium channel α-subunit; expressed in transfected cells; host or cells: HEK-293
T3 sequence (Q14524 whole entry): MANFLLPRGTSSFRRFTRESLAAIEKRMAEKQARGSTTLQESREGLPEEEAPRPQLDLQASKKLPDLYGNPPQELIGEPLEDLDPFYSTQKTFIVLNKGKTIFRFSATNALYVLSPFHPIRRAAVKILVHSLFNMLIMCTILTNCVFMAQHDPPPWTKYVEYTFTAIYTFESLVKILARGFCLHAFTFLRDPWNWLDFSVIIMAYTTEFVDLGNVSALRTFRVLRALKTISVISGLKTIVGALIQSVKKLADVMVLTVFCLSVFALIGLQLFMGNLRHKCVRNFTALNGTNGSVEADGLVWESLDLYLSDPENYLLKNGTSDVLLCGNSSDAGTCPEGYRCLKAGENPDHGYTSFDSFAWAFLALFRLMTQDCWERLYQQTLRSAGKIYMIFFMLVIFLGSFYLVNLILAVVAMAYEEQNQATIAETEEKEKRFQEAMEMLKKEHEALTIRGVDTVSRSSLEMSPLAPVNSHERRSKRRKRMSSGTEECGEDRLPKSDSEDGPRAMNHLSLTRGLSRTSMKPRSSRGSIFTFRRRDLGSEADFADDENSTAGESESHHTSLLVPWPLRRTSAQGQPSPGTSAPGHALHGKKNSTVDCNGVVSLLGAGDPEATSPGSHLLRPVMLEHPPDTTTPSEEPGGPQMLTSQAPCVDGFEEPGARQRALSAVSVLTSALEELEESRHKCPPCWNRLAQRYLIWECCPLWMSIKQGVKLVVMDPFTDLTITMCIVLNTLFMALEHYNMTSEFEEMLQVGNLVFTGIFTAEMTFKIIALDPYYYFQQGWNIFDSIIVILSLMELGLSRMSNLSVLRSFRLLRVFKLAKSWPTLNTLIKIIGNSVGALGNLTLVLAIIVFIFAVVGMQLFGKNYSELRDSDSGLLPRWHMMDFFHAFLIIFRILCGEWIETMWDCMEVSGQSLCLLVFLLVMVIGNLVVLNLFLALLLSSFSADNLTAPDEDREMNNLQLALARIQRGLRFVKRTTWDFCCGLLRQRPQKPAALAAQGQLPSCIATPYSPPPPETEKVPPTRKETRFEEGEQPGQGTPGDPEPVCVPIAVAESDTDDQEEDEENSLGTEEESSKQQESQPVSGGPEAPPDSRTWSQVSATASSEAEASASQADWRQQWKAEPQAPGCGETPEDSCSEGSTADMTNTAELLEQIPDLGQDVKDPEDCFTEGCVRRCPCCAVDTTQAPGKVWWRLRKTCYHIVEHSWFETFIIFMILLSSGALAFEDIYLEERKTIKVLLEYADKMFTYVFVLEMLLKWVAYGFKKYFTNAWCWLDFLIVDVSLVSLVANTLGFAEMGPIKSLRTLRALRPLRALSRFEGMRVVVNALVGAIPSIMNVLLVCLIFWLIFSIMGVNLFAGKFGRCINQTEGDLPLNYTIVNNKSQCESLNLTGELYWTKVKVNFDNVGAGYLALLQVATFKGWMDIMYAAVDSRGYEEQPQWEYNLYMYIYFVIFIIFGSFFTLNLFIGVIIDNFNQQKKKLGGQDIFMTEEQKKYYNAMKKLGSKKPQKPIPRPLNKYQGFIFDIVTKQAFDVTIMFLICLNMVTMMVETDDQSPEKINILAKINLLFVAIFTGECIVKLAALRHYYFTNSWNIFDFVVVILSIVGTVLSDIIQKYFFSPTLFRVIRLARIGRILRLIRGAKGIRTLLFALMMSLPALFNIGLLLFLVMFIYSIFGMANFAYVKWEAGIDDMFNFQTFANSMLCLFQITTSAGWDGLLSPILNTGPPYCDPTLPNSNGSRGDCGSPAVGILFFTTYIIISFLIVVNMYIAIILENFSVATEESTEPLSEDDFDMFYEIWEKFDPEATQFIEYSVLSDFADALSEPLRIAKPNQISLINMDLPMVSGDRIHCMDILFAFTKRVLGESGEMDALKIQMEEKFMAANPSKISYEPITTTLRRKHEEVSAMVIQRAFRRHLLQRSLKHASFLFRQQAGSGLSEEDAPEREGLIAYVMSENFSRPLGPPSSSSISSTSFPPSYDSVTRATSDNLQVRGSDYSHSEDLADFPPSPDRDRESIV
Experimental: as §1, §2, §3, §4

[1] = human, HEK-293 cells stably expressing human NaV1.5 with β1 subunit, pH 7.4

Row | Compound | IC50 (human NaV1.7) [nM] | IC50 (hNav1.7) [nM] | IC50 (NaV1.5; read-out: Nav1.5) [nM] | IC50 (NaV1.5; [1]) [nM]
1 | O=C(N[C@H](C(=O)O)C1CC1)c1cc(C2CC2)c(OCC2CCN([C@@H](c3ccccc3)c3cc(Cl)cc(Cl)c3)CC2)cc1F (single isomer, unassigned) [Example 119] | 850 | 15 | 9400 | 
2 | C[C@H]1CCN(C(=O)c2cc(C3CC3)c(OCC3CCN([C@H](c4cc(Cl)cc(Cl)c4)C(F)(F)F)CC3)cc2F)[C@@H]1C(=O)O (single isomer, unassigned) [Example 121a] | 880 | 20 | 13000 | 
3 | C[C@H]1CCN(C(=O)c2cc(C3CC3)c(OCC3CCN([C@@H](c4cc(Cl)cc(Cl)c4)C(F)(F)F)CC3)cc2F)[C@@H]1C(=O)O (single isomer, unassigned) [Example 121b] | 880 | 18 | 17000 | 
4 | O=C(O)[C@@H]1CCCN1C(=O)c1cc(C2CC2)c(OCC2CCN([C@H](c3cc(Cl)cc(Cl)c3)C(F)(F)F)CC2)cc1F (single isomer, unassigned) [Example 123a] | 490 | 48 | 7100 | 
5 | O=C(O)[C@@H]1CCCN1C(=O)c1cc(C2CC2)c(OCC2CCN([C@@H](c3cc(Cl)cc(Cl)c3)C(F)(F)F)CC2)cc1F (single isomer, unassigned) [Example 123b] | 410 | 31 | 7700 | 
6 | O=C(O)[C@@H]1C[C@@H](F)CN1C(=O)c1cc(C2CC2)c(OCC2CCN([C@@H](c3ccccc3)c3cc(Cl)cc(Cl)c3)CC2)cc1F (single isomer, unassigned) [Example 125] | 380 | 16 | 6200 | 
7 | C[C@H](c1cc(Cl)cc(Cl)c1)N1CCC(C#N)(COc2cc(F)c(C(=O)N3C[C@H](F)C[C@H]3C(=O)O)cc2C2CC2)CC1 (single isomer, unassigned) [Example 126a] | 2300 | 120 | 10000 | 
8 | C[C@@H](c1cc(Cl)cc(Cl)c1)N1CCC(C#N)(COc2cc(F)c(C(=O)N3C[C@H](F)C[C@H]3C(=O)O)cc2C2CC2)CC1 (single isomer, unassigned) [Example 126b] | 1400 | 100 | 10000 | 
9 | C[C@@H](c1cc(Cl)cc(Cl)c1)N1CCC(C)(COc2cc(F)c(C(=O)N3C[C@H](F)C[C@H]3C(=O)O)cc2C2CC2)CC1 (single isomer, unassigned) [Example 132a] | 330 | 24 | 17000 | 
10 | C[C@H](c1cc(Cl)cc(Cl)c1)N1CCC(C)(COc2cc(F)c(C(=O)N3C[C@H](F)C[C@H]3C(=O)O)cc2C2CC2)CC1 (single isomer, unassigned) [Example 132b] | 430 | 24 |  | ≥ 30000
11 | C[C@@]1(COc2cc(F)c(C(=O)N3CCC[C@H]3C(=O)O)cc2C2CC2)CCN(Cc2cc(F)cc(Cl)c2)C1 (single isomer, unassigned) [Example 137a] | 3700 | 570 | 15000 | 
12 | C[C@]1(COc2cc(F)c(C(=O)N3CCC[C@H]3C(=O)O)cc2C2CC2)CCN(Cc2cc(F)cc(Cl)c2)C1 (single isomer, unassigned) [Example 137b] | 2400 | 310 |  | ≥ 30000
13 | C[C@H]1OCN(C(=O)c2cc(C3CC3)c(OCC3CCN([C@H](c4cc(Cl)cc(Cl)c4)C(F)(F)F)CC3)cc2F)[C@@H]1C(=O)O (single isomer, unassigned) [Example 138a] | 300 | 6.9 | 13000 | 
14 | C[C@H]1OCN(C(=O)c2cc(C3CC3)c(OCC3CCN([C@@H](c4cc(Cl)cc(Cl)c4)C(F)(F)F)CC3)cc2F)[C@@H]1C(=O)O (single isomer, unassigned) [Example 138b] | 320 | 7.6 | 11000 | 
15 | O=C(O)[C@@H]1CCCN1C(=O)c1cc(C2CC2)c(OC[C@H]2CCN(C(c3ccccc3)c3ccccc3)C2)cc1F (single isomer, unassigned) [Example 139a] | 5000 | 650 | 25000 | 
16 | O=C(O)[C@@H]1CCCN1C(=O)c1cc(C2CC2)c(OC[C@@H]2CCN(C(c3ccccc3)c3ccccc3)C2)cc1F (single isomer, unassigned) [Example 139b] | 7100 | 800 | 22000 | 
17 | O=C(O)[C@@H]1C[C@@H](F)CN1C(=O)c1cc(C2CC2)c(OCC2CCN([C@H](c3cc(Cl)cc(Cl)c3)C(F)(F)F)CC2)cc1F (single isomer, unassigned) [Example 140a] | 170 | 14 | 2700 | 
18 | O=C(O)[C@@H]1C[C@@H](F)CN1C(=O)c1cc(C2CC2)c(OCC2CCN([C@@H](c3cc(Cl)cc(Cl)c3)C(F)(F)F)CC2)cc1F (single isomer, unassigned) [Example 140b] | 160 | 21 | 3700 | 
19 | O=C(NC(C(=O)O)C1CC1)c1cc(C2CC2)c(COc2cc(Cl)cc(OC(F)(F)F)c2)cc1F (stereo in doubt) [Example 120, (R)-2-(4-((3-chloro-5-(trifluoromethoxy)phenoxy)methyl)-5-cyclopropyl-2-fluorobenzamido)-2-cyclopropylacetic acid] | 290 | 27 | 14000 | 
20 | CC1(C)CCN(C(=O)c2cc(C3CC3)c(OCC34CC5CC(CC(C5)C3)C4)cc2F)C1C(=O)O (stereo in doubt) [Example 151, (2R)-1-[4-(1-adamantylmethoxy)-5-cyclopropyl-2-fluoro-benzoyl]-3,3-dimethyl-pyrrolidine-2-carboxylic acid] | 780 | 58 | 5200 | 
21 | O=C(O)C1COCN1C(=O)c1cc(C2CC2)c(OCC23CC4CC(CC(C4)C2)C3)cc1F (stereo in doubt) [Example 154, (4R)-3-[4-(1-adamantylmethoxy)-5-cyclopropyl-2-fluoro-benzoyl]oxazolidine-4-carboxylic acid] | 830 | 59 | 16000 | 
22 | O=C(O)[C@@H]1[C@H]2C[C@H]2CN1C(=O)c1cc(C2CC2)c(OCC23CC4CC(CC(C4)C2)C3)cc1F (stereo in doubt) [Example 171, 3-[4-(1-adamantylmethoxy)-5-cyclopropyl-2-fluoro-benzoyl]-3-azabicyclo[3.1.0]hexane-4-carboxylic acid] | 240 | 25 | 9000 | 
23 | O=C(O)[C@@H]1CCCN1C(=O)c1cc(C2CC2)c(OCC23CC4CC(CC(C4)C2)C3)cc1F [Example 1, (S)-1-(4-(adamantan-1-ylmethoxy)-5-cyclopropyl-2-fluorobenzoyl)pyrrolidine-2-carboxylic acid] | 13.5 | 19.6 | 3500 | 
24 | O=C(NC1(C(=O)O)CC1)c1cc(C2CC2)c(OCC23CC4CC(CC(C4)C2)C3)cc1F [Example 6, 1-(4-(adamantan-1-ylmethoxy)-5-cyclopropyl-2-fluorobenzamido)-cyclopropanecarboxylic acid] | 532 | 3580 | 2120 | 
25 | C[C@H](NC(=O)c1cc(C2CC2)c(OCC23CC4CC(CC(C4)C2)C3)cc1F)C(=O)O [Example 11, (S)-2-(4-(adamantan-1-ylmethoxy)-5-cyclopropyl-2-fluorobenzamido)propanoic acid] | 36.1 | 200 | 2190 | 
